Consider 2 molecules from patent US20240197715A1, “PHARMACEUTICAL COMBINATIONS AND USES THEREOF” (NOVARTIS AG, priority 2022, published 2024).

The subject of assay [1] is SW620 (CCL-227, ATCC) MSS colorectal carcinoma xenografts. Briefly: SW620 MSS CRC xenograft efficacy in nude mice. The conditions noted are these: for effect on tumor growth of parental SW620 tumors: irinotecan 15 mg/kg i.v. once weekly, Compound A 120 mg/kg p.o. daily. The assay is classed as in vivo. The method, then:
SW620 (CCL-227, ATCC) [MSS colorectal carcinoma (CRC)] was cultured in DMEM (#1-26F01-I, AMIMED) supplemented with 10% FCS (#2-0-1F30-I, BioConcept), 4 mM L-glutamine (#5-10K50-H, BioConcept) and 1 mM Sodium pyruvate (#5-60F00-H, BioConcept). Cells were passaged by washing first with Dulbecco's PBS without Ca^2+/Mg^2+ (#3-05F29-1, AMIMED), trypsinising cells with Trypsin 0.05% in PBS with EDTA (#5-51F00-H, AMIMED), centrifuging in the respective culture media, and splitting cells into fresh media at a ratio of 1:8, 2 times per week.
Athymic nude mice (Charles River, Germany) were allowed to adapt for 7 days upon arrival at the animal facility and housed in a pathogen-controlled environment (5 mice/Type III cage) with access to food and water ad libitum. Animals were identified with transponders. Studies described in this report were performed according to procedures covered by a permit number issued by the Kantonales Veterinäramt Basel-Stadt.
Subcutaneous tumors were initiated by injecting 5.0×10^6 SW620 tumor cells in 50% Matrigel (#354234, Corning) in HBSS (#H6648, SIGMA) in the right flank of nude mice. The efficacy experiment (n=6), started 11 days post-cell injection.
Compound A and Temozolomide were made-up fresh on a weekly basis and kept at 4° C. and protected from light. Compound A was dissolved in 20% Hydroxypropyl-ß-Cyclodextrine (HP-ß-CD, #H107-100G, SIGMA) in UltraPure™ Water (#10977-035, Invitrogen) and administered p.o. at 10 ml/kg. Temozolomide was dissolved in 30% PEG-400 (#202398-500G, SIGMA) and 70% Dulbecco's PBS without Ca^2+/Mg^2+ (#3-05F29-1, AMIMED) and administered p.o. at 10 mL/kg on 5 consecutive days within a 21 days cycle. Irinotecan was made-up fresh for each treatment once a week by diluting with NaCl 0.9% (#3-06S00-I, BioConcept). The solution was administered i.v. at 5 mL/kg.
(§1) Tumor volumes (TVol), determined from caliper measurements (using the formula I*w2*π/6) were measured two times per week. Tumor response was quantified by the change in tumor volume (endpoint minus starting value in mm^3) as the T/C (the ratio between the tumor volume in the treated group and in the untreated control group). In the case of a tumor regression or to assess the percentage of change in TVol, the tumor response was quantified by the percentage of regression of the starting TVol. The body-weight (BW) of the animal was measured three times per week allowing calculation at any particular time-point relative to the day of initiation of treatment (day 0) of the percentage change in BW (4% BW).
At day 43 post-cell injection, irinotecan was administered intravenously at 15 mg/kg once weekly for 7 weeks in combination with Compound A, also administered from day 43, orally at 120 mg/kg daily for 52 days.
Starting 11 days post-cell injection, temozolomide was administered orally on a 21 day cycle of 5 consecutive days at 100 mg/kg on 5 consecutive days (day 11 to day 15 and day 32 to day 36). At day 43 post-cell injection, to the first group irinotecan was administered intravenously at 15 mg/kg once weekly for 6 weeks, and to the second group irinotecan was administered intravenously at 15 mg/kg once weekly for 6 weeks in combination with Compound A, also administered from day 43, orally at 120 mg/kg daily for 46 days.

The subject of assay [2] is T84 (CCL-248, ATCC) MSS colorectal carcinoma xenografts. Briefly: T84 MSS CRC xenograft efficacy in nude mice. It is filed as in vivo. The conditions noted are these: Compound A 120 mg/kg p.o.; irinotecan 5 mg/kg i.v. once a week. The method, then: T84 (CCL-248, ATCC) is MSS colorectal carcinoma (CRC). It was cultured in DMEM (#1-26F01-I, AMIMED) supplemented with 10% FCS (#2-0-1F30-I, BioConcept), 4 mM L-glutamine (#5-10K50-H, BioConcept) and 1 mM Sodium pyruvate (#5-60F00-H, BioConcept). Cells were passaged by washing first with Dulbecco's PBS without Ca^2+/Mg^2+ (#3-05F29-1, AMIMED), trypsinising cells with Trypsin 0.05% in PBS with EDTA (#5-51F00-H, AMIMED), centrifuging in the respective culture media, and splitting cells into fresh media at a ratio of 1:8, 2 times per week.
Athymic nude mice (Charles River, Germany) were allowed to adapt for 7 days upon arrival at the animal facility and housed in a pathogen-controlled environment (5 mice/Type III cage) with access to food and water ad libitum. […]
as §1, with “I*w2*TT/6)” for “I*w2*π/6)”, “T/C.” for “T/C (the ratio between the tumor volume in the treated group and in the untreated control group).”

With `CCc1c(N2CCN(C(=O)c3ncnc(C)c3O)CC2)c(=O)n2nc(C3=CCOCC3)nc2n1CC(=O)Nc1ccc(C(F)(F)F)cc1Cl` [Compound A], in assay [1] (SW620, all treatments stopped vs still treated with compound A only), the “outcome after stopping temozolomide and irinotecan on day 129” value is on record as “remained below 50% tumor regression”. Further, the “effect on tumor growth of parental SW620 tumors” value in assay [1] is given as “delay of the tumor growth”. Also, the “effect on tumor growth of parental T84 tumors” value in assay [2] was “no effect”.
As to `CCc1c2c(nc3ccc(OC(=O)N4CCC(N5CCCCC5)CC4)cc13)-c1cc3c(c(=O)n1C2)COC(=O)[C@]3(O)CC` [irinotecan], the “relapse of TMZ pre-treated SW620 tumors” value in assay [1] (after 2 cycles TMZ, treatment from day 43) is on record as “the tumors relapsed”. Further, in assay [1], the “effect on tumor growth of parental SW620 tumors” value was “delay of the tumor growth”. Besides, the “effect on tumor growth of parental T84 tumors” value in assay [2] was “delay of the tumor growth”.
